# Experimental data: US8466161B2, “Hydroxamate derivative, a production method for the same, and a pharmaceutical composition comprising the same” (Chong Kun Dang Pharmaceutical Corp., priority 2009, dated 2013)
# Tested on: HL60 cell line
# Test: Inhibitory effect on growth of HL60 cell line (MTT)
# Assay type: cell-based
# Details: Homo sapiens, HL-60, 72 h, 3 days culture
# Method: In the culture of HL60 cells, 10% FBS-containing RPMI1640 medium was used Each of test substances was serially diluted in DMSO to a concentration of 10 mg/ml and serially diluted in PBS to a final concentration ranging from 100 μg/ml to 0.03 μg/ml. 20 μl (micro-liter) of each of the serially diluted test substances and 180 μl (micro-liter) of a medium containing 60×10^4 cells/ml were added to a 96-well plate and cultured under conditions of 37° C. and 5% CO2 for 3 days. After completion of the culture, 50 μl (micro-liter) of a solution of 1.25 mg/ml MTT (3-(4,5-dimethylthiazol-2-yl)-2,5-diphenyltetrazolium bromide) in PBS was added to each well of the plate and incubated at 37° C. for 3 hours. The formed formazan crystal was dissolved in 150 μl (micro-liter) of DMSO, and the absorbance at 570 nm was measured.
row,SMILES,IC50 [nM]
1,"Cn1ncc2ccc(-c3ccc(N(CCCCCCC(=O)NO)S(C)(=O)=O)cn3)cc21 [Compound 327, N-hydroxy-7-(N-(6-(1-methyl-1H-indazol-6-yl)pyridin-3-yl)methylsulfonamido)heptanamide]",50 to 100
2,"CCN1CCN(C(=O)N(CCCCCCC(=O)NO)c2ccc(-c3ccc4c(cnn4C)c3)cc2)CC1 [Compound 351, 4-ethyl-N-(7-(hydroxyamino)-7-oxoheptyl)-N-(4-(1-methyl-1H-indazol-5-yl)phenyl)piperazine-1-carboxamide]",20 to 50
3,"CS(=O)(=O)N(CCCCCCC(=O)NO)c1ccc(-c2ccc3[nH]ccc3c2)cc1 [Compound 303, 7-(N-(4-(1H-indol-5-yl)phenyl)methylsulfonamido)-N-hydroxyheptanamide]",10 to 20
4,"CCNC(=O)N(CCCCCCC(=O)NO)c1ccc(-c2ccc3cc[nH]c3c2)cc1 [Compound 295, 7-(1-(4-(1H-indol-6-yl)phenyl)-3-ethylureido)-N-hydroxyheptanamide]",50 to 100
5,"CCOC(=O)N(CCCCCCC(=O)NO)c1ccc(-c2ccc3cc[nH]c3c2)cc1 [Compound 267, Ethyl 4-(1H-indol-6-yl)phenyl(7-(hydroxyamino)-7-oxoheptyl)carbamate]",50 to 100
6,"Cn1ncc2ccc(-c3ccc(N(CCCCCCC(=O)NO)C(=O)c4cccnc4)cc3)cc21 [Compound 270, N-(7-(hydroxyamino)-7-oxoheptyl)-N-(4-(1-methyl-1H-indazol-6-yl)phenyl)nicotinamide]",50 to 100
7,"CN1CCN(C(=S)N(CCCCCCC(=O)NO)c2ccc(-c3ccc4c(cnn4C)c3)cc2)CC1 [Compound 359, N-hydroxy-7-(4-methyl-N-(4-(1-methyl-1H-indazol-5-yl)phenyl)piperazine-1-thiocarboamido)heptanamide]",20 to 50
8,"CN1CCN(C(=O)N(CCCCCCC(=O)NO)c2ccc(-c3ccc4c(ccn4C)c3)cc2)CC1 [Compound 341, N-(7-(hydroxyamino)-7-oxoheptyl)-4-methyl-N-(4-(1-methyl-1H-indol-5-yl)phenyl)piperazine-1-carboxamide]",20 to 50
9,"O=C(CCCCCCN(c1ccc(-c2ccc3cc[nH]c3c2)cc1)S(=O)(=O)c1cccnc1)NO [Compound 263, 7-(N-(4-(1H-indol-6-yl)phenyl)pyridine-3-sulfonamido)-N-hydroxyheptanamide]",20 to 50
10,"Cn1ncc2ccc(-c3ccc(N(CCCCCCC(=O)NO)S(C)(=O)=O)cc3)cc21 [Compound 284, N-hydroxy-7-(N-(4-(1-methyl-1H-indazol-6-yl)phenyl)methylsulfonamido)heptanamide]",50 to 100
11,"CS(=O)(=O)N(CCCCCCC(=O)NO)c1ccc(-c2ccc3cc[nH]c3c2)cc1 [Compound 264, 7-(N-(4-(1H-indol-6-yl)phenyl)methylsulfonamido)-N-hydroxyheptanamide]",20 to 50
12,"COc1cccc(NC(=O)N(CCCCCCC(=O)NO)c2ccc(-c3ccc4cc[nH]c4c3)cc2)c1 [Compound 256, 7-(1-(4-(1H-indol-6-yl)phenyl)-3-(3-methoxyphenyl)ureido)-N-hydroxyheptanamide]",50 to 100
13,"COc1cc(NC(=O)N(CCCCCCC(=O)NO)c2ccc(-c3ccc4cc[nH]c4c3)cc2)cc(OC)c1 [Compound 260, 7-(1-(4-(1H-indol-6-yl)phenyl)-3-(3,5-dimethoxyphenyl)ureido)-N-hydroxyheptanamide]",50 to 100
14,"CN1CCN(S(=O)(=O)N(CCCCCCC(=O)NO)c2ccc(-c3ccc4cnn(C)c4c3)cc2)CC1 [Compound 342, N-hydroxy-7-(4-methyl-N-(4-(1-methyl-1H-indazol-6-yl)phenyl)piperazine-1-sulfonamido)heptanamide]",20 to 50
15,"O=C(CCCCCCN(C(=O)c1ccccn1)c1ccc(-c2ccc3[nH]ccc3c2)cc1)NO [Compound 305, N-(4-(1H-indol-5-yl)phenyl)-N-(7-(hydroxyamino)-7-ooxheptyl)picolinamide]",20 to 50
16,"CS(=O)(=O)N(CCCCCCC(=O)NO)c1ccc(-c2ccc3cc[nH]c3c2)nc1 [Compound 326, 7-(N-(6-(1H-indol-6-yl)pyridin-3-yl)methylsulfonamido)-N-hydroxyheptanamide]",20 to 50
17,"O=C(CCCCCCN(C(=O)N1CCOCC1)c1ccc(-c2ccc3cc[nH]c3c2)cc1)NO [Compound 306, N-(4-(1H-indol-6-yl)phenyl)-N-(7-(hydroxyamino)-7-oxoheptyl)morpholine-4-carboxamide]",10 to 20

row,SMILES,IC50 [nM]
1,"CN1CCN(C(=S)N(CCCCCCC(=O)NO)c2ccc(-c3ccc4[nH]ccc4c3)cc2)CC1 [Compound 358, 7-(N-(4-(1H-indol-5-yl)phenyl)-4-methylpiperazine-1-carbothioamido)-N-hydroxyheptanamide]",20 to 50
2,"CCS(=O)(=O)N(CCCCCCC(=O)NO)c1ccc(-c2ccc3cc[nH]c3c2)cc1 [Compound 276, 7-(N-(4-(1H-indol-6-yl)phenyl)ethylsulfonamido)-N-hydroxyheptanamide]",20 to 50
3,"CN1CCN(C(=O)N(CCCCCCC(=O)NO)c2ccc(-c3ccc4c(cnn4C)c3)cc2)CC1 [Compound 350, N-(7-(hydroxyamino)-7-oxoheptyl)-4-methyl-N-(4-(1-methyl-1H-indazol-5-yl)phenyl)piperazine-1-carboxamide]",20 to 50
4,"CN1CCCN(C(=O)N(CCCCCCC(=O)NO)c2ccc(-c3ccc4cc[nH]c4c3)cc2)CC1 [Compound 330, N-(4-(1H-indol-6-yl)phenyl)-N-(7-(hydroxyamino)-7-oxoheptyl)-4-methyl-1,4-diazepane-1-carboxamide]",50 to 100
5,"CS(=O)(=O)N(CCCCCCC(=O)NO)c1ccc(-c2ccc3[nH]ccc3c2)nc1 [Compound 328, 7-(N-(6-(1H-indol-5-yl)pyridin-3-yl)methylsulfonamido)-N-hydroxyheptanamide]",20 to 50
6,"Cc1cc2cc(-c3ccc(N(CCCCCCC(=O)NO)S(C)(=O)=O)cc3)ccc2[nH]1 [Compound 296, N-hydroxy-7-(N-(4-(2-methyl-1H-indol-5-yl)phenyl)methylsulfonamido)heptanamide]",50 to 100
7,"CN1CCN(C(=O)N(CCCCCCC(=O)NO)c2ccc(-c3ccc4cc[nH]c4c3)cc2)CC1 [Compound 309, N-(4-(1H-indol-6-yl)phenyl)-N-(7-(hydroxyamino)-7-oxoheptyl)-4-methylpiperazine-1-carboxamide]",10 to 20
8,"COc1ccc(C(=O)N(CCCCCCC(=O)NO)c2ccc(-c3ccc4cc[nH]c4c3)cc2)cc1 [Compound 180, N-(4-(1H-indol-6-yl)phenyl)-N-(7-(hydroxyamino)-7-oxoheptyl)-4-methoxybenzamide]",20 to 50
9,"CN1CCN(C(=O)N(CCCCCCC(=O)NO)c2ccc(-c3ccc4[nH]ccc4c3)cc2)CC1 [Compound 313, N-(4-(1H-indol-5-yl)phenyl)-N-(7-(hydroxyamino)-7-oxoheptyl)-4-methylpiperazine-1-carboxamide]",20 to 50
10,"CCN1CCN(C(=O)N(CCCCCCC(=O)NO)c2ccc(-c3ccc4[nH]ccc4c3)cc2)CC1 [Compound 340, N-(4-(1H-indol-5-yl)phenyl)-4-ethyl-N-(7-(hydroxyamino)-7-oxoheptyl)piperazine-1-carboxamide]",10 to 20
11,"CN1CCN(C(=S)N(CCCCCCC(=O)NO)c2ccc(-c3ccc4cc[nH]c4c3)cc2)CC1 [Compound 357, 7-(N-(4-(1H-indol-6-yl)phenyl)-4-methylpiperazine-1-carbothioamido)-N-hydroxyheptanamide]",50 to 100
12,"CCS(=O)(=O)N(CCCCCCC(=O)NO)c1ccc(-c2ccc3[nH]ccc3c2)cc1 [Compound 314, 7-(N-(4-(1H-indol-5-yl)phenyl)ethylsulfonamido)-N-hydroxyheptanamide]",20 to 50
13,"O=C(CCCCCCN(C(=O)c1cccnc1)c1ccc(-c2ccc3cc[nH]c3c2)cc1)NO [Compound 181, N-(4-(1H-indol-6-yl)phenyl)-N-(7-(hydroxyamino)-7-oxoheptyl)nicotinamide]",20 to 50
14,"O=C(CCCCCCN(C(=O)c1ccccn1)c1ccc(-c2ccc3cc[nH]c3c2)cc1)NO [Compound 211, N-(4-(1H-indol-6-yl)phenyl)-N-(7-(hydroxyamino)-7-oxoheptyl)picolinamide]",50 to 100
15,"CN(C)CC(=O)N(CCCCCCC(=O)NO)c1ccc(-c2ccc3cc[nH]c3c2)cc1 [Compound 265, 7-(N-(4-(1H-indol-6-yl)phenyl)-2-(dimethylamino)acetamido)-N-hydroxyheptanamide]",50 to 100
16,"CNC(=O)N(CCCCCCC(=O)NO)c1ccc(-c2ccc3cc[nH]c3c2)cc1 [Compound 275, 7-(1-(4-(1H-indol-6-yl)phenyl)-3-methylureido)-N-hydroxyheptanamide]",50 to 100
17,"CN(C)S(=O)(=O)N(CCCCCCC(=O)NO)c1ccc(-c2ccc3cc[nH]c3c2)cc1 [Compound 277, 7-((4-(1H-indol-6-yl)phenyl)(N,N-dimethylsulfamoyl)amino)-N-hydroxyheptanamide]",50 to 100
